Laboratory results reported in patent US20120157401A1, “METHODS FOR TREATING NEUROFIBROMATOSIS” (PTC Therapeutics, Inc., priority 2009, published 2012).

Experiments:
[1] = system: VEGF189 and VEGF206 isoforms; assay: In-Cell Western / Western blot of matrix associated VEGF189/206 production in HT1080 cells; assay type: cell-based, human; settings: HT1080, normoxic, 48 hours
Experimental: Experimental Design. HT1080 (human fibrosacoma) cell cultures were established under normoxic conditions (21% oxygen). HT1080 cells constitutively overproduce VEGF even under normoxic conditions. […] At the completion of treatment, the cells were washed and harvested. Cells were incubated with a primary antibody that recognizes the VEGF189 and VEGF206 isoforms. Infrared-dye labeled antibodies were applied secondarily, and the amounts of VEGF189 and VEGF206 were determined using the IN-CELL WESTERN® assay and ODYSSEY® infrared imaging system (Li-Cor, Lincoln, Nebr., USA); results are expressed as percentage inhibition relative to vehicle treated controls. Conventional Western blotting using the same primary antibody was also performed to confirm the presence of the matrix associated isoforms; for these experiments actin was used as a loading control. Actin is a ubiquitous housekeeping protein that is not known to be post transcriptionally regulated.

[2] = Patients: hearing function (word recognition, pure tone threshold, BAER); assay type: in vivo, human
Text: Hearing function: Assessments of word recognition and pure tone thresholds may be direct measures of patient functioning that define symptomatic consequences of the presence of VS (see, e.g., Halpin et al., Otol Neurotol., January 2006, 27(1):110-6). Standard clinical criteria for definition of hearing response (H-R) based on a 50-word hearing test (see, e.g., Thornton et al., J. Speech Hear. Res., September 1978, 21(3): 507-18) can be employed for word recognition tests.
Hearing Tests. Subjects may undergo hearing tests at screening, and at various times during the treatment protocol. Hearing assessment may be determined in standard clinical fashion and may include:
Determination of word recognition scores using a standardized list of test words, i.e., the 50-item Central Institute for the Deaf [CID] list W-22, recorded) (Thornton et al., J. Speech Hear Res., September 1978, 21(3): 507-18);
Pure-tone averages calculated as the average of the pure-tone thresholds at 500, 1000, 2000, and 3000 Hz;
Brainstem auditory evoked response (BAERs) reported as the latency of wave V, if present; and […]

tumor perfusion = assay: Patients: tumor perfusion by DCE-MRI; assay type: in vivo, human
Text: Tumor perfusion using DCE-MRI: Assessing tumor blood flow offers an additional parameter of a Compound's action that can confirm the downstream consequences of decreasing tumor VEGF. Measurement of blood flow in target lesions provides direct evidence of a Compound's action on tumors that can be correlated with plasma VEGF changes. Assessment of tumor perfusion using DCE-MRI may be used to evaluate the efficacy of a Compound using standard protocols (see., e.g., Morgan et al., J. Clin. Oncol., Nov. 1, 2003, 21(21):3955-64; Leach et al., Br. J. Cancer, May 9, 2005, 92(9):1599-610; Liu et al., J. Clin. Oncol., August 2005, 23(24): 5464-73; and Thomas et al., J. Clin. Oncol., Jun. 20, 2005, 23(18):4162-71).
Tumor Perfusion with DCE-MRI. Subjects may undergo DCE-MRI for the target lesion of interest during the screening period and between 1 to 8 hours after the AM dose at various times throughout the treatment protocol.

[3] = system: SY5Y orthotopic xenografts; assay: Orthotopic SY5Y neuroblastoma tumor model (kidney capsule): tumor weight; assay type: in vivo
Text: Experimental Design. In orthotopic tumor models, human tumor cells are implanted into the mouse in an organ that corresponds to the location from which the tumors arise. Such models may provide a better predictor of clinical efficacy than injection of tumors into the flanks of nude mice. See Hoffman, Invest. New Drugs 1999, 17(4):343-59. SY5Y neuroblastoma or SKNEP Ewing sarcoma tumor cells (1×10^6 cells/mouse) were implanted into the kidney capsule of female athymic nude mice according to published methods. See Huang et al., Proc. Natl. Acad. Sci. USA 2003, 100(13):7785-90. One week after implantation of each type of tumor, mice were divided into 2 groups and were administered a test Compound as shown in Table 21.
After 5 weeks of treatment, the mice were sacrificed, and the weights of the tumors were assessed.

[4] = system: soluble VEGF121 and VEGF165 isoforms; assay: Inhibition of soluble VEGF production in human tumor cell lines (ELISA, EC50); assay type: cell-based
Experimental: Study Design. […] In these experiments, cultures were established under normoxic conditions (21% oxygen). […] Cells requiring induction of VEGF production were incubated under hypoxic conditions (1% oxygen). At the completion of treatment, the conditioned media were collected and assayed by ELISA (as described in Section 9.1.1.1) for soluble VEGF121 and VEGF165 isoforms; results were calculated as percentage inhibition relative to vehicle treated controls. EC50 values were calculated from the dose concentration response curves.

HT1080 spheroids = assay: 3-dimensional growth of HT1080 spheroids (BrdU / 7-AAD FACS, morphology); assay type: cell-based, human
Experimental: Experimental Design. HT1080 cells grown as a monolayer were trypsinized and seeded onto a 0.75% agar noble base to prevent the cells from attaching to the bottom of the tissue culture plate and to allow/promote the cells to self-adhere and grow as 3-dimensional spheroids. […] The cells were incubated for 22 and 45 hours at 37° C., in the presence of a 10% CO2 atmosphere. Spheroids were visually checked daily for morphological changes and a medium was replenished two times per week. […] These pulse labeled spheroids were then harvested, washed and trypsinized (triple action solution, Gibco), pelleted and prepared for FACS analysis with a FITC BrdU Flow Kit, (BD Pharmingen). Cells were fixed and permeabilized with paraformadehyde and DNA stained with 7-AAD followed by incubation with an antibody which specifically recognizes […] incorporated into DNA. As described in Section 9.3.1.4. Cells were analyzed and sorted by 7-AAD signal (DNA content) to determine cell cycle phase, and BrdU content (percent actively synthesizing DNA).
Spheroids, prepared as above, were treated with either vehicle alone (0.5% DMSO v/v final) added to the media or a Compounds provided herein (10 nM or 50 nM final concentration) in media to which vehicle has been added.

[5] = 28-day oral toxicity study in dogs (15-day recovery)
Experimental: The L23 vehicle was used. […] All studies in the toxicology program were conducted according to GLP regulations.

## COc1ccc(C2c3[nH]c4ccc(Cl)cc4c3CCN2C(=O)Oc2ccc(Cl)cc2)cc1 (racemic) [Compound #10]
[1]
  Inhibition of VEGF189 and VEGF206 isoforms: potent concentration-dependent inhibition
[2]
  Hearing function in patients (FIG. 39): stabilized hearing function
Tumor perfusion
  Tumor perfusion in patients by DCE-MRI (FIG. 36): reduced
[3]; 5 weeks of treatment
  Growth of orthotopic SY5Y tumors (tumor weight): completely prevented growth
[3]; orthotopic SKNEP and SY5Y mice
  Toxicity on observing the animals: no evidence of toxicity
[4]; A-375, Melanoma, A375, hypoxic (1% oxygen), 48 hours
  EC50: 50 nM
[4]; A-431, Epidermoid, A431, 48 hours
  EC50: 10 nM
[4]; Breast, MDA-MB-468, hypoxic (1% oxygen), 48 hours
  EC50: 5 nM
[4]; Cervical, HeLa, hypoxic (1% oxygen), 48 hours
  EC50: 2 nM
[4]; Colorectal, HCT-116, 48 hours
  EC50: 10 nM
[4]; Gastric, AGS, 48 hours
  EC50: 0.1 nM
[4]; Gastric, Kato III, hypoxic (1% oxygen), 48 hours
  EC50: 10 nM
[4]; HT-1080, Fibrosarcoma, HT1080, 48 hours
  EC50: 10 nM
[4]; Lung, A549, 48 hours
  EC50: 50 nM
[4]; Lung, Calu-6, hypoxic (1% oxygen), 48 hours
  EC50: 7 nM
[4]; Lung, NCI H460, 48 hours
  EC50: 10 nM
[4]; MDA-MB-231, 48 h
  EC50: 5 nM
[4]; Neuroblastoma, SY5Y, hypoxic (1% oxygen), 48 hours
  EC50: 5 nM
[4]; Pancreas, Capan-1, hypoxic (1% oxygen), 48 hours
  EC50: 5 nM
[4]; Prostate, LNCaP, hypoxic (1% oxygen), 48 hours
  EC50: 15 nM
[4]; Renal cell, HEK293, 48 hours
  EC50: 10 nM
[4]; SK-OV-3, Ovarian, SKOV3, hypoxic (1% oxygen), 48 hours
  EC50: 10 nM
[4]; SNU1, Gastric, SNU-1, 48 hours
  EC50: 0.1 nM
HT1080 spheroids; 24 or 48 hours
  Cell cycle distribution of HT1080 spheroids: not affected
  Percentage of spheroid cells that incorporated BrdU: not significantly altered
HT1080 spheroids; maintained in the presence of compound for three weeks, data not shown
  Morphology of spheroids: no obvious morphological changes
[5]
  Dose of maximal exposures: 30 mg/kg/dose BID
[5]; high dose
  Target organ of toxicity: small intestine
